As a reminder, the pKa is the negative logarithm of the acid dissociation constant.

For data set [1] the following is noted: cited from earlier work.
Data set [2] can be described thus: thermodynamic stability of the crystal polymorph. The class given is physicochemical. The source says: The compound of the formula (I-1) is known from WO2010/069502. To date, only one crystal form of the compound 1-(3-chloropyridin-2-yl)-N-[4-cyano-2-methyl-6-(methylcarbamoyl)phenyl]-3-{[5-(trifluoromethyl)-2H-tetrazol-2-yl]methyl}-1H-pyrazole-5-carboxamide of the formula (I-1) was known, which is referred to hereinafter as polymorph A. Polymorph A has a characteristic x-ray powder diffractogram, Raman spectrum and IR spectrum (Tab. 1-2, FIGS. 2, 3, 5).

For `FC(F)(F)c1nnn[nH]1` [5-Trifluoromethyltetrazole], the pKa in data set [1] was 1.14.
With `CNC(=O)c1cc(C#N)cc(C)c1NC(=O)c1cc(Cn2nnc(C(F)(F)F)n2)nn1-c1ncccc1Cl` [Polymorph A, 1-(3-chloropyridin-2-yl)-N-[4-cyano-2-methyl-6-(methylcarbamoyl)phenyl]-3-{[5-(trifluoromethyl)-2H-tetrazol-2-yl]methyl}-1H-pyrazole-5-carboxamide], the “thermodynamic stability of crystal polymorph” value in data set [2] is “thermodynamically metastable”.

Values taken from patent US8969572B2, “Process for preparing tetrazole-substituted anthranilamide derivatives and novel crystal polymorphs of these derivatives” (Bayer Cropscience AG, priority 2010, dated 2015).
